Where a name gives a salt, the structure may show the parent alone.
Columns and labels:
A549 cells = experiment: Colony formation assay; type: cell-based, human; conditions: for effect of heme addition on colony formation: 10 μM heme add-back; for effect of iron addition on colony formation: 50 μM ferric chloride; for colony formation: 6 days, 0.5 mM succinyl acetone, 10 μM HSPs, 50 μM DFX, 10 μM SnPP
Experimental: (§1) Cell proliferation was measured by detecting the luciferase activity in live cells and by using a hemocytometer. Cell migration and invasion assays were carried out with BD Falcon cell culture inserts (Corning Life Sciences) and the manufacturer's cell migration, chemotaxis, and invasion assay protocols. For the colony formation assay, 5000 NSCLC cells were seeded in every well in 6-well tissue culture plates in triplicates. Cells were treated with 0.5 mM succinyl acetone (Sigma Aldrich), 10 μM HSPs, 50 μM deferoxamine mesylate (DFX), 10 μM zinc (II) protoporphyrin IX, 10 μM tin (IV) protoporphyrin IX, or 50 μM ferric chloride for 6 days. For heme add-back experiments, 10 μM heme was included. Medium was changed every 3 days. After 6 days of treatment, cells were fixed with 70% ethanol and stained with 0.5% crystal violet. Images were acquired by using Carestream Gel Logic GL-112 imaging system.

H1299 cells = experiment: Colony formation assay; type: cell-based, human; conditions: for effect of heme addition on colony formation: 10 μM heme add-back; for effect of iron addition on colony formation: 50 μM ferric chloride; for colony formation: 6 days, 0.5 mM succinyl acetone, 10 μM HSPs, 50 μM DFX, 10 μM SnPP
Experimental: as §1

A549 NSCLC cells [1] = experiment: Cell migration assay (Transwell inserts); type: cell-based, human; conditions: 10 μM heme
Experimental: as §1

H1299 NSCLC cells [2] = experiment: Cell migration assay (Transwell inserts); type: cell-based, human; conditions: heme add-back 10 μM, b23 prints 10 mM
Experimental: as §1

H1299 NSCLC cells [3] = experiment: Cell invasion assay (Matrigel invasion chambers); type: cell-based, human; conditions: heme add-back 10 μM, b23 prints 10 mM
A549 NSCLC cells [4] = experiment: Cell invasion assay (Matrigel invasion chambers); type: cell-based, human; conditions: 10 μM heme
[5] = tested on: H1299 NSCLC lung tumor xenografts; type: in vivo; conditions: SA 50 mg/kg I.V. every 3 days, from 4 days after implantation
[6] = tested on: 5-aminolevulic synthase (ALAS1); conditions: previous studies, non-erythroid cells; cited from earlier work
[7] = references 55, 56; cited from earlier work
heme oxygenases = conditions: reference 51; cited from earlier work

| Molecule | effect of heme addition on colony formation (A549 cells) | effect of iron addition on colony formation (A549 cells) | colony formation (A549 cells) | effect of heme addition on colony formation (H1299 cells) | effect of iron addition on colony formation (H1299 cells) | colony formation (H1299 cells) | effect of heme addition on reduced migration (A549 NSCLC cells [1]) | effect of heme addition on reduced migration (H1299 NSCLC cells [2]) | effect of heme addition on reduced invasion (H1299 NSCLC cells [3]) | effect of heme addition on reduced invasion (A549 NSCLC cells [4]) | suppression of lung tumors (BLI) [5] | inhibition of heme biosynthesis [6] | toxicity to animals [7] | inhibition of the activities of heme oxygenases (heme oxygenases) |
| --- | --- | --- | --- | --- | --- | --- | --- | --- | --- | --- | --- | --- | --- | --- |
| CC(=O)N(O)CCCCCNC(=O)CCC(=O)N(O)CCCCCNC(=O)CCC(=O)N(O)CCCCCN [DFX, Deferoxamine mesylate] | partially reversed | largely reversed | reduced colony formation | partially reversed | largely reversed | reduced colony formation | – | – | – | – | – | – | – | – |
| CC(=O)CC(=O)CCC(=O)O [succinyl acetone, Succinyl acetone] | largely reversed | did not reverse | strongly suppressed colony formation | largely reversed | did not reverse | strongly suppressed colony formation | largely reversed | largely reversed | largely reversed | largely reversed | not very effective | effective inhibitor | low toxicity | – |
| Tin (IV) protoporphyrin [SnPP] | – | – | appeared to reduce colony formation | – | – | appeared to reduce colony formation | – | – | – | – | – | – | – | strong inhibitor |
